The source made the active and inactive calls. No rule for the calls is given here.
Biological target: Chaperone protein DnaK (Escherichia coli (strain K12)) (UniProt P0A6Y8)
Assay: binders of DnaK substrate-binding domain, biophysical, NMR, chaperone (AID 1033)
Settings: Purified DnaK SBD, NMR ligand binding

Chain of Chaperone protein DnaK (Escherichia coli (strain K12)) (P0A6Y8 whole entry, looked up, the tested form may be a part): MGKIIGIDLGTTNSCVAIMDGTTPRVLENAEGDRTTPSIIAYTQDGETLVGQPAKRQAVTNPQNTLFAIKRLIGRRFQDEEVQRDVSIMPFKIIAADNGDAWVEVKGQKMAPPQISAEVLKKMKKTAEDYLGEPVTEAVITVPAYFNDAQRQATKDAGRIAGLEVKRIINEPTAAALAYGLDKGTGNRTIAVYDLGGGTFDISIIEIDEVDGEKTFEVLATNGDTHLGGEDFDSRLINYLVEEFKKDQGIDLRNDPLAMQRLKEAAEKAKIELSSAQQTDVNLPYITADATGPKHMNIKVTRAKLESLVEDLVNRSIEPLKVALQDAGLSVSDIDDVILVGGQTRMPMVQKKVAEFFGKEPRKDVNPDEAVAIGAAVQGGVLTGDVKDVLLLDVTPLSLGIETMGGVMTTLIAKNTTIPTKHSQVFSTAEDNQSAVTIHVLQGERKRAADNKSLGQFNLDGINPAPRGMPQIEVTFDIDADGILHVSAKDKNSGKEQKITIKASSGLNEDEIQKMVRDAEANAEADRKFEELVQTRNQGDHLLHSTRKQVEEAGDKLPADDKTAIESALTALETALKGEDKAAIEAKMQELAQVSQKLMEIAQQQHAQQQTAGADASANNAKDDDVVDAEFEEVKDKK

SMILES | Kd
CN(C)S(=O)(=O)c1ccc(N2CCOCC2)nc1 | > 4 mM (inactive)
Cc1nnc(NCc2ccc3c(c2)OCO3)[nH]c1=O | > 4 mM (inactive)
O=c1cnnc(NCc2ccc(F)cc2)[nH]1 | > 4 mM (inactive)
O=C1CCCC(=O)N1c1ccc(O)cc1 | > 4 mM (inactive)
O=Cc1c(N2CCOCC2)nc2ccccn2c1=O | > 4 mM (inactive)
N#CC(O[C@@H]1O[C@H](CO[C@@H]2O[C@H](CO)[C@@H](O)[C@H](O)[C@H]2O)[C@@H](O)[C@H](O)[C@H]1O)c1ccccc1 (stereo partly specified) | > 4 mM (inactive)
O=C(O)C1CSC(c2ccco2)N1 (stereo unspecified) | > 4 mM (inactive)
Cc1nccn1CCC(=O)O | > 4 mM (inactive)
CC(C)CCCC(C)[C@H]1CCC2C3CC=C4C[C@@H](O)CC[C@]4(C)C3CC[C@@]21C (stereo partly specified) | > 4 mM (inactive)
C=CC(C1=CC(=O)C=CC1=O)c1ccccc1 (stereo unspecified) | > 4 mM (inactive)
O=C(OCc1c(F)cccc1Cl)c1cnccn1 | > 4 mM (inactive)
O=C(O)C(O)C(O)C(O)C(O)C(=O)O (stereo unspecified) | > 4 mM (inactive)
O=c1c(-c2cccs2)[n+]([O-])c2ccccc2n1O | > 4 mM (inactive)
Cc1cc(C)n2c(SCc3c(C)noc3C)nnc2n1 | > 4 mM (inactive)
Cc1cc2cc3c(C)cc(=O)oc3c(C)c2o1 | > 4 mM (inactive)
Nc1nc(-c2ccc(F)c(F)c2)cs1 | > 4 mM (inactive)
CCN1CCC2(CC1)CC1CC3C=CC1(CN2C(C)=O)O3 (stereo unspecified) | > 4 mM (inactive)
CCC(C)C(NC)C(=O)O (stereo unspecified) | > 4 mM (inactive)
Cc1nnc(NC(=O)C(C)Sc2nncn2C)s1 (stereo unspecified) | > 4 mM (inactive)
O=c1ccc(=O)n(CN2CCc3ccccc3C2)[nH]1 | > 4 mM (inactive)
O=C1C2C3C=CC(C3)C2C(=O)N1CCO (stereo unspecified) | > 4 mM (inactive)

SMILES | Kd
CC(=O)Oc1c(C)cc(O)c2ccccc12 | > 4 mM (inactive)
Cc1occc1C(=O)NCc1ccncc1 | > 4 mM (inactive)
Cn1c(=O)n(CC(=O)N2CCOCC2)c2ccccc21 | > 4 mM (inactive)
Nc1nc(-c2ccc(Cl)cc2)nn1C(=O)c1cccnc1 | > 4 mM (inactive)
O=C1NC(=O)C(c2ccccc2)C(=O)N1 | > 4 mM (inactive)
CC1=CCCC2C1(C)CCC(C)C2(C)CC/C(C)=C/C[n+]1cn(C)c2c(N)ncnc21 (stereo unspecified) | > 4 mM (inactive)
O=C(Cc1cccs1)Nc1nncs1 | > 4 mM (inactive)
CCCn1cnc2sc(C(N)=O)c(C)c2c1=O | > 4 mM (inactive)
O=S(=O)(CCN1CCCC1)c1ccccc1 | > 4 mM (inactive)
O=C(Nc1cccc(Cl)c1)c1cnn2cccnc12 | > 4 mM (inactive)
CCCSc1nnc2[nH]c(=O)cc(N)n12 | > 4 mM (inactive)
O=C(c1cccc(C(F)(F)F)c1)N1CCCC1 | > 4 mM (inactive)
Cc1nn(-c2ccccc2)nc1C(N)=O | > 4 mM (inactive)
CS(=O)(=O)N1CCN(c2ncccn2)CC1 | > 4 mM (inactive)
COC(=O)C(O)[C@@H]1C2(C)C(=O)[C@@H](CC3=C4CC(=O)O[C@@H](c5ccoc5)[C@]4(C)CCC32)[C@H](OC(C)=O)C1(C)C (stereo partly specified) | > 4 mM (inactive)
C[C@]12CCC3C(CC[C@H]4C[C@@H](O)CC[C@]34C)C1CCC2=O (stereo partly specified) | > 4 mM (inactive)
Nc1ncnc2nc(SCCN3CCCCC3)[nH]c12 | > 4 mM (inactive)
CC(CCC(=O)O)[C@H]1CCC2C3C(C[C@H](O)[C@@]21C)[C@@]1(C)CC[C@@H](O)C[C@H]1C[C@H]3O (stereo partly specified) | > 4 mM (inactive)
COc1ccc2c(c1)OCC(Cc1ccc(OC)c(OC)c1)C2=O (stereo unspecified) | > 4 mM (inactive)
O=C(O)CNCC(O)Cn1c2ccccc2c2ccccc21 (stereo unspecified) | > 4 mM (inactive)
CNC(=O)n1ccc(C(=O)N2CCCCC2)n1 | > 4 mM (inactive)

SMILES | Kd
COC(=O)c1cccc2cc[nH]c12 | > 4 mM (inactive)
NC1=NC(=O)/C(=C/c2ccccc2[N+](=O)[O-])S1 | > 4 mM (inactive)
COC(=O)Cc1cccc(OC)c1 | > 4 mM (inactive)
Nc1ccc2nsnc2c1 | > 4 mM (inactive)
CC(=O)O[C@@H]1CC2C(C)(C)[C@H](O)C[C@H](O)[C@]2(C)C2CC[C@@]3(C)C(=CC(=O)O[C@H]3c3ccoc3)[C@@]21C (stereo partly specified) | > 4 mM (inactive)
O=C(c1cccnc1Cl)N1CCOCC1 | > 4 mM (inactive)
O=C1CNC(=O)/C1=C/c1ccc(O)cc1 | > 4 mM (inactive)
COc1cc2c(cc1OC)[C@@H]1C(=O)c3ccc(O)c(CC=C(C)C)c3O[C@@H]1CO2 | > 4 mM (inactive)
O=C(CN1CCOCC1)Nc1cccc(Br)c1 | > 4 mM (inactive)
CCC1=Nc2ccccc2-c2nnc(SC)nc2O1 | > 4 mM (inactive)
Nc1ncc2[nH]cnc2n1 | > 4 mM (inactive)
Cc1nnc(N2CCN(Cc3ccccc3)CC2)[nH]c1=O | > 4 mM (inactive)
Nc1ccc(-n2cccn2)cc1 | > 4 mM (inactive)
Cc1c(C(=O)O)cnn1-c1ccccc1 | > 4 mM (inactive)
C/C=C(\C)C(=O)OC1[C@@H]2C=C3C(CC[C@]4(C)C3CC(=O)O[C@H]4c3ccoc3)C(C)(C2=O)[C@@H](C(O)C(=O)OC)C1(C)C (stereo partly specified) | > 4 mM (inactive)
COc1ccc(C2=CC(=O)C=CC2=O)cc1 | > 4 mM (inactive)
OC1CCN(Cc2ccc[nH]2)CC1 | > 4 mM (inactive)
CN1CCN(C(=S)NC(=O)c2ccn(C)n2)CC1 | > 4 mM (inactive)
O=c1c(-c2cc(O)c(O)c(O)c2)coc2cc(O)c(O)c(O)c12 | > 4 mM (inactive)
OCc1cc2ccccc2o1 | > 4 mM (inactive)
CCNC(=S)N1CCC(C(N)=O)CC1 | > 4 mM (inactive)

SMILES | Kd
COc1cccc(O)c1O | > 4 mM (inactive)
CC1=NN(c2ccc(N)cc2)C(=O)C1 | > 4 mM (inactive)
O=C(Nc1ccccc1C(F)(F)F)N1CCCCCC1 | > 4 mM (inactive)
CC(=O)Nc1ccc(NC(C)=O)cc1 | > 4 mM (inactive)
CN1CCC(N2CCN(C)CC2)CC1 | > 4 mM (inactive)
CCC(C)C(=O)O[C@@H]1C[C@@]2(C)[C@H](c3ccoc3)OC(=O)CC23OC2(C)OC34[C@H](OC(=O)C(C)C)[C@@]3(O)[C@@H](OC(=O)C5(C)OC5C)[C@@]5(C)C[C@]3(O)[C@@](C)([C@H]5CC(=O)OC)C14O2 (stereo partly specified) | > 4 mM (inactive)
C/C=C1\[C@H]2C=C(C)C[C@]1(N)c1ccc(=O)[nH]c1C2 | > 4 mM (inactive)
Cc1cccc(NC(=O)CN2C(=O)CNC2=O)c1 | > 4 mM (inactive)
O=C(/C=C/c1ccc(O)cc1)c1ccc(O)cc1O | > 4 mM (inactive)
Cc1nnc2ccc(N3CCCC3)nn12 | > 4 mM (inactive)
Cn1nnc2cc(CO)ccc21 | > 4 mM (inactive)
Cn1cc(Cl)c(C(=O)NC2CCCC2)n1 | > 4 mM (inactive)
O=C1CN2C(=N1)N(Cc1ccccc1)c1ccccc12 | > 4 mM (inactive)
COc1ccc2c(c1)[nH]c1c(C)nccc12 | > 4 mM (inactive)
C[C@]12C=CC(=O)C=C1CCC1C2CC[C@]2(C)C(=O)CCC12 (stereo partly specified) | > 4 mM (inactive)
CC(C)[C@@H]1CC[C@@H](C)C[C@H]1OC(=O)c1ccccc1 | > 4 mM (inactive)
CCOC(=O)N1CCCC1c1cccnc1 (stereo unspecified) | > 4 mM (inactive)
O=C(Nc1nnc(-c2ccccc2Cl)o1)c1ccco1 | > 4 mM (inactive)
